Source: patent US10238111B2, “Fungicidal compositions” (Dow AgroSciences LLC, priority 2014, dated 2019)

Assays:
Assay type in all cases: physicochemical
[1] = Approximate (relative) solubility of active ingredients in organic solvents at ambient temperature; conditions: 0.2 g Compound A mixed with 1.38 g cyclohexanone
Description: The approximate solubility of Compound A was determined by mixing a known mass of the active ingredient with an increasing mass of each solvent at ambient temperature. […] The solubility of Compound A in the solvents used in this screening procedure was generally classified within the following concentration ranges: […]

[2] = Accelerated storage stability of Compound A in liquid compositions, 2 weeks at 54° C. (HPLC)
Description: The test compositions were prepared in a manner similar to that described in Example 1 using one or more of Compound A, prothioconazole, pyraclostrobin, benzyl acetate, and AMD 810, and a third solvent chosen from cyclohexanone, acetophenone, 2-heptanone, 2-heptanal, oleyl alcohol or 2-ethylhexanol.

[3] = Solubility of Compound A and prothioconazole in benzyl acetate/AMD810 blends at 10° C. (HPLC); conditions: both actives saturated
Description: A study of the Compound A and prothioconazole solubility in blends of benzyl acetate/AMD810 was conducted. To each solvent blend both actives were added until each was saturated and the resulting mixtures were then stored at 10° C. until equilibrium was obtained. Aliquots of the supernatant layer were taken from each sample, filtered (0.45 μm mesh) and analyzed by HPLC to determine the solution concentration of each active in the blends.

COc1ccnc(C(=O)N[C@H]2COC(=O)[C@H](Cc3ccccc3)[C@@H](OC(=O)C(C)C)[C@H](C)OC2=O)c1OCOC(=O)C(C)C [Compound A, propanoic acid, 2-methyl-, [[4-methoxy-2-[[[(3S,7R,8R,9S)-9-methyl-8-(2-methyl-1-oxopropoxy)-2,6-dioxo-7-(phenylmethyl)-1,5-dioxonan-3-yl]amino]carbonyl]-3-pyridinyl]oxy]methyl ester]
clear solution comprising Compound A [1]: 12.6 % w/w | Compound A after Storage (% retention) ([2]; wt %: Compound A 3.4, AMD 810 96.0, third solvent none): 49^ % retention | Compound A after Storage (% retention) ([2]; wt %: Compound A 4.9, benzyl acetate 94.1, third solvent none): 85^ % retention | Compound A after Storage (% retention) ([2]; wt %: Compound A 12.0, cyclohexanone 85.7): 96^ % retention | Compound A Solubility at 10° C. ([3]; benzyl acetate to AMD810 in blend 0 wt %): 3.3 % w/w | Compound A Solubility at 10° C. ([3]; benzyl acetate to AMD810 in blend 20 wt %): 4.3 % w/w | Compound A Solubility at 10° C. ([3]; benzyl acetate to AMD810 in blend 40 wt %): 6.5 % w/w | Compound A Solubility at 10° C. ([3]; benzyl acetate to AMD810 in blend 60 wt %): 11.0 % w/w | Compound A Solubility at 10° C. ([3]; benzyl acetate to AMD810 in blend 80 wt %): 12.0 % w/w
